These compounds were tested on rabbit anti-B. anthracis spore polyclonal IgG antibodies.
Type: binding
`C[C@H](O)[C@H](O)[C@@H](O)[C@@H](O)C=O` [Saccharide 6, L-Rhamnose] was tested, and the “IgG signal detected by glycan arrays (n = 3) Mean” value (from here on “IgG signal detected”) was 1.03. With `O=C[C@H](O)[C@H](O)[C@@H](O)[C@@H](O)CO` [Saccharide 13, L-Mannose] the “IgG signal detected” value was 1.06. In the case of `CO[C@H]1O[C@H](CO)[C@@H](O)[C@H](O[C@H]2O[C@H](CO)[C@H](O)[C@H](O)[C@H]2O[C@@H]2O[C@@H](C)[C@H](O)[C@@H](O[C@@H]3O[C@@H](C)[C@H](O)[C@@H](O)[C@H]3O)[C@H]2O)[C@H]1NC(C)=O` [Saccharide 26, Methyl <-L-rhamnopyranosyl-(1→3)-<-L-rhamnopyranosyl-(1→2)-<-D-galactopyranosyl-(1→3)-2-acetamido-2-deoxy-<-D-glucopyranoside], the “IgG signal detected” value is reported as 1.01. For “Streptococcus pneumoniae type 23 capsular polysaccharide [Saccharide 35]”, the “IgG reactivities (Ratio of Sg./bg.) Mean” value was 12.35 and the “antibody reactivity detected by glycan arrays” value was “positive spots”. For `CO[C@H]1O[C@H](C)[C@@H](NC(=O)[C@@H](O)CCO)[C@H](O)[C@@H]1O[C@H]1O[C@H](C)[C@@H](NC(=O)[C@@H](O)CCO)[C@H](O)[C@@H]1O[C@H]1O[C@H](C)[C@@H](NC(=O)[C@@H](O)CCO)[C@H](O)[C@@H]1O[C@H]1O[C@H](C)[C@@H](NC(=O)[C@@H](O)CCO)[C@H](O)[C@@H]1OC` [Saccharide 28, Methyl 2-O-methyl-4,6-dideoxy-4-(3-deoxy-L-glycero-tetronamido)-<-D-mannopyranosyl-(1→2)-bis-[4,6-dideoxy-4-(3-deoxy-L-glycero-tetronamido)-<-D-mannopyranosyl-(1→2)]-4,6-dideoxy-4-(3-deoxy-L-glycero-tetronamido)-<-D-mannopyranoside], the “IgG signal detected” value was 1.07. In the case of `CO[C@H]1O[C@H](CO)[C@H](O)[C@H](O)[C@H]1O[C@@H]1O[C@@H](C)[C@H](O)[C@@H](O[C@@H]2O[C@@H](C)[C@H](O)[C@@H](O)[C@H]2O)[C@H]1O` [Saccharide 25, Methyl <-L-rhamnopyranosyl-(1→3)-<-L-rhamnopyranosyl-(1→2)-<-D-galactopyranoside, reference compound], the “IgG signal detected” value is reported as 1.02. In the case of `COC(=O)CCCCCO[C@@H]1O[C@@H](C)[C@H](O)[C@@H](O[C@@H]2O[C@@H](C)[C@H](O)[C@@H](O)[C@H]2O)[C@H]1O` [Saccharide 16, 5-(Methoxycarbonyl)pentyl α-L-rhamnopyranosyl-(1→3)-α-L-rhamnopyranoside], the “IgG signal detected” value is reported as 1.00. In the case of `O=C[C@H](O)[C@@H](O)[C@H](O)[C@H](O)CO` [Saccharide 9, D-Glucose], the “IgG signal detected” value is reported as 1.04. In the case of `O=C[C@H](O)[C@@H](O)[C@@H](O)CO` [Saccharide 12, L-Arabinose], the “IgG signal detected” value is reported as 1.03. In the case of “[Methyl 2-O-methyl-4,6-dideoxy-4-(3-deoxy-L-glycero-tetronamido)-<-D-mannopyranosyl-(1→2)-bis[4,6-dideoxy-4-(3-deoxy-L-glycero-tetronamido)-<-D-mannopyranosyl-(1→2)]-4,6-dideoxy-4-(3-deoxy-L-glycero-tetronamido)-<-D-mannopyranoside]10-BSA [Saccharide 32]”, the “IgG signal detected” value is reported as 1.20. With `COC(=O)CCCCCO[C@H]1O[C@@H](C)[C@H](O)[C@@H](O)[C@H]1O` [Saccharide 15, 5-(Methoxycarbonyl)pentyl β-L-rhamnopyranoside] the “IgG signal detected” value was 0.95. In the case of `O=C[C@H](O)[C@@H](O)[C@@H](O)[C@H](O)CO` [Saccharide 8, D-Galactose], the “IgG signal detected” value is reported as 1.06. `COC(=O)CCCCCO[C@@H]1O[C@@H](C)[C@H](O)[C@@H](O)[C@H]1O` [Saccharide 14, 5-(Methoxycarbonyl)pentyl α-L-rhamnopyranoside] was tested, and the “IgG signal detected” value was 0.97. With “[Methyl 2-O-methyl-4,6-dideoxy-4-(3-deoxy-L-glycero-tetronamido)-<-D-mannopyranosyl-(1→2)-4,6-dideoxy-4-(3-deoxy-L-glycero-tetronamido)-<-D-mannopyranosyl-(1→2)-4,6-dideoxy-4-(3-deoxy-L-glycero-tetronamido)-<-D-mannopyranoside]5-BSA [Saccharide 31]” the “IgG signal detected” value was 1.53. In the case of “Methyl 2-O-methyl-4,6-dideoxy-4-(3-deoxy-L-glycero-tetronamido)-<-D-mannopyranosyl-(1→2)-tetrakis[4,6-dideoxy-4-(3-deoxy-L-glycero-tetronamido)-<-D-mannopyranosyl-(1→2)]-4,6-dideoxy-4-(3-deoxy-L-glycero-tetronamido)-<-D-mannopyranoside [Saccharide 30]”, the “IgG signal detected” value is reported as 1.67. For `CO[C@H]1O[C@H](CO)[C@H](O)[C@H](O)[C@H]1O[C@@H]1O[C@@H](C)[C@H](O)[C@@H](O)[C@H]1O` [Saccharide 21, Methyl <-L-rhamnopyranosyl-(1→2)-<-D-galactopyranoside, reference compound], the “IgG signal detected” value was 1.08. For “Methyl 2-O-methyl-4,6-dideoxy-4-(3-deoxy-L-glycero-tetronamido)-<-D-mannopyranosyl-(1→2)-tris[4,6-dideoxy-4-(3-deoxy-L-glycero-tetronamido)-<-D-mannopyranosyl-(1→2)]-4,6-dideoxy-4-(3-deoxy-L-glycero-tetronamido)-<-D-mannopyranoside [Saccharide 29]”, the “IgG signal detected” value was 1.09. `CO[C@@H]1O[C@@H](C)[C@H](O)[C@@H](O[C@@H]2O[C@@H](C)[C@H](O)[C@@H](O)[C@H]2O)[C@H]1O` [Saccharide 24, Methyl <-L-rhamnopyranosyl-(1→3)-<-L-rhamnopyranoside, reference compound] was tested, and the “IgG signal detected” value was 1.02. In the case of `CO[C@H]1O[C@H](CO)[C@@H](O)[C@H](O[C@H]2O[C@H](CO)[C@H](O)[C@H](O)[C@H]2O[C@@H]2O[C@@H](C)[C@H](O)[C@@H](O)[C@H]2O)[C@H]1NC(C)=O` [Saccharide 23, Methyl <-L-rhamnopyranosyl-(1→2)-<-D-galactopyranosyl-(1→3)-2-acetamido-2-deoxy-<-D-glucopyranoside], the “IgG signal detected” value is reported as 1.01. With `COC(=O)CCCCCO[C@@H]1O[C@@H](C)[C@H](O)[C@@H](O)[C@H]1O[C@@H]1O[C@@H](C)[C@H](O)[C@@H](O)[C@H]1O` [Saccharide 18, 5-(Methoxycarbonyl)pentyl α-L-rhamnopyranosyl-(1→2)-α-L-rhamnopyranoside] the “IgG signal detected” value was 1.26. `COC(=O)CCCCCO[C@H]1O[C@@H](C)[C@H](O)[C@@H](O)[C@H]1O[C@@H]1O[C@@H](C)[C@H](O)[C@@H](O[C@@H]2O[C@@H](C)[C@H](O)[C@@H](O)[C@H]2O)[C@H]1O` [Saccharide 20, 5-(Methoxycarbonyl)pentyl α-L-rhamnopyranosyl-(1→3)-α-L-rhamnopyranosyl-(1→2)-β-L-rhamnopyranoside] was tested, and the “IgG signal detected” value was 0.95.
